Test results from US11191843B2, “Multi-arm targeting anti-cancer conjugate” (priority 2017, dated 2021).

Test system: orthotopic U87MG brain glioma
Assay: Effect on survival in orthotopic U87MG brain glioma model in nude mice
Assay type: in vivo
Details: BALB/c nude mice, 40 mg·kg^-1 (as irinotecan), i.v. via tail, Q4D×3, dosing from day 12 after inoculation
Method: Experimental animals: Female BALB/c nude mice (number of animals: 150, weeks of age: 6 to 8 weeks) were purchased from Beijing Vital River Laboratory Animal Technology Co., Ltd., and housed in an SPF animal room. The temperature was 20° C. to 25° C., the relative humidity was 40% to 70%, and the light and dark were respectively 12 hours. The animals had free access to water and food. After about one week of normal feeding, upon a veterinary inspection, mice with good physical signs and conditions could be selected for this experiment. A marking pen was used to mark the base of the tails of the animals before the grouping, and each animal was marked by ear clipping after the grouping.
Transplantable tumor cell strain: Brain glioma cell U87MG, derived from Cell Bank of Committee on Type Culture Collection of Chinese Academy of Science (CAS, stored frozen in liquid nitrogen in the laboratory).
According to the condition of cell growth, the cells were passaged once or twice every week, and were passaged in a ratio of 1:2 to 1:6.
Preparation of the animal model: U87MG cells in logarithmic phase of growth were collected. […] The cells were charged into a 50 mL centrifuge tube after being pipetted with a pipettor to make them evenly dispersed, and the centrifuge tube was placed in an ice box. […]
Data recording and calculation formula: The survival time of the animals were recorded.

**Q.** How did the Median survival time turn out when `CCc1c2c(nc3ccc(OC(=O)N4CCC(N5CCCCC5)CC4)cc13)-c1cc3c(c(=O)n1C2)COC(=O)[C@]3(O)CC` [irinotecan] was run?
**A.** Its Median survival time is 27 days.
